Earlier results, collected in US11576377B2, “Antimicrobial mixtures of an essential oil derived bactericide and an essential oil derived fungicide which extend the shelf-life of perishable agricultural commodities” (priority 2013, dated 2023).

Columns and labels:
peaches = details: Mari et al. 2008
cherry stem = details: Tsao and Zhou, 2000

Compound | Phytotoxic effect on peaches (peaches) | Phytotoxic effect on cherry stem (cherry stem)
C=CCN=C=S [allyl isothiocyanate] | causes discoloration of peaches | 
Cc1ccc(C(C)C)c(O)c1 [thymol] |  | causes browning of cherry stem
